According to patent publication US6737383B1, “Herbicidal oxadiazolidines” (priority 1999, dated 2004):

What was measured:
[1] = test system: bedstraw; test: Test B pre/postemergence bedstraw; format: in vivo, Galium aparine
In short: (§1)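 Test chemicals in a non-phytotoxic solvent mixture with surfactant were sprayed preemergence onto planted seeds and postemergence onto plants 2 to 18 cm tall (1- to 4-leaf stage). After twelve to sixteen days in a greenhouse, injury was visually rated against untreated controls from 0 (no effect) to 10 (complete control).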

[2] = test system: blackgrass; test: Test B pre/postemergence blackgrass; format: in vivo, Alopecurus myosuroides
In short: as §1

[3] = test system: surinam grass; test: Test B pre/postemergence surinam grass; format: in vivo, Brachiaria decumbens
In short: as §1

[4] = test system: cocklebur; test: Test B pre/postemergence cocklebur; format: in vivo, Xanthium strumarium
In short: as §1

[5] = test system: corn; test: Test B pre/postemergence corn; format: in vivo, Zea mays
In short: as §1

[6] = test system: crabgrass; test: Test B pre/postemergence crabgrass; format: in vivo, Digitaria sanguinalis
In short: as §1

[7] = test system: giant foxtail; test: Test B pre/postemergence giant foxtail; format: in vivo, Setaria faberii
In short: as §1

[8] = test system: morningglory; test: Test B pre/postemergence morningglory; format: in vivo, Ipomoea hederacea
In short: as §1

[9] = test system: pigweed; test: Test B pre/postemergence pigweed; format: in vivo, Amaranthus retroflexus
In short: as §1

[10] = test system: rape; test: Test B pre/postemergence rape; format: in vivo, Brassica napus
In short: as §1

[11] = test system: soybean; test: Test B pre/postemergence soybean; format: in vivo, Glycine max
In short: as §1

[12] = test system: sugar beet; test: Test B pre/postemergence sugar beet; format: in vivo, Beta vulgaris
In short: as §1

[13] = test system: velvetleaf; test: Test B pre/postemergence velvetleaf; format: in vivo, Abutilon theophrasti
In short: as §1

[14] = test system: wheat; test: Test B pre/postemergence wheat; format: in vivo, Triticum aestivum
In short: as §1

[15] = test system: wild oat; test: Test B pre/postemergence wild oat; format: in vivo, Avena fatua
In short: as §1

[16] = test system: purple nutsedge; test: Test B pre/postemergence purple nutsedge; format: in vivo, Cyperus rotundus
In short: as §1

[17] = Postemergence, Rate 62 g/ha, scale of 0 to 10, 0 is no effect, 10 is complete control
[18] = Postemergence, Rate 125 g/ha, scale 0 to 10, 0 is no effect, 10 is complete control
[19] = Postemergence, Rate 500 g/ha, scale of 0 to 10 where 0 is no effect and 10 is complete control
[20] = Preemergence, Rate 62 g/ha, scale 0 to 10 (0 no effect, 10 complete control)
[21] = Preemergence, Rate 125 g/ha, scale 0 to 10, 0 is no effect, 10 is complete control
[22] = Preemergence, Rate 500 g/ha, scale of 0 to 10 where 0 is no effect and 10 is complete control
[23] = Rate 250 g/ha, Postemergence, scale of 0 to 10 where 0 is no effect and 10 is complete control

## CC(=O)OCCCCn1c(=O)on(C(=O)N(c2ccccc2)C(C)C)c1=O [Compound 565]
[1]; [17]
  Bedstraw plant response rating: 0
[1]; [18]
  Bedstraw plant response rating: 0
[1]; [19]
  Plant response rating, Bedstraw: 0
[1]; [20]
  Bedstraw plant response rating: 0
[1]; [21]
  Bedstraw plant response rating: 0
[1]; Preemergence, Rate 250 g/ha
  Bedstraw plant response rating (0 to 10 scale): 0
[1]; [22]
  Bedstraw plant response rating: 0
[2]; [17]
  Blackgrass plant response rating: 0
[2]; [18]
  Blackgrass plant response rating: 0
[2]; [19]
  Plant response rating, Blackgrass: 0
[2]; [20]
  Blackgrass plant response rating: 0
[2]; [21]
  Blackgrass plant response rating: 0
[2]; Preemergence, Rate 250 g/ha
  Blackgrass plant response rating (0 to 10 scale): 0
[2]; [22]
  Blackgrass plant response rating: 0
[2]; [23]
  Plant response rating, Blackgrass: 0
[3]; [17]
  B. signalgrass plant response rating: 0
[3]; [18]
  B. signalgrass plant response rating: 0
[3]; [19]
  Plant response rating, B. signalgrass: 0
[3]; [20]
  B. signalgrass plant response rating: 0
[3]; [21]
  B. signalgrass plant response rating: 0
[3]; Preemergence, Rate 250 g/ha
  B. signalgrass plant response rating (0 to 10 scale, 0 is no effect, 10 is complete control): 0
[3]; [22]
  B. signalgrass plant response rating: 0
[3]; [23]
  Plant response rating, B. signalgrass: 0
[4]; [17]
  Cocklebur plant response rating: 0
[4]; [18]
  Cocklebur plant response rating: 0
[4]; [19]
  Plant response rating, Cocklebur: 2
[4]; [20]
  Cocklebur plant response rating: 0
[4]; [21]
  Cocklebur plant response rating: 0
[4]; Preemergence, Rate 250 g/ha
  Cocklebur plant response rating (0 to 10 scale): 0
[4]; [22]
  Cocklebur plant response rating: 0
[4]; [23]
  Plant response rating, Cocklebur: 2
[5]; [17]
  Corn plant response rating: 0
[5]; [18]
  Corn plant response rating: 0
[5]; [19]
  Plant response rating, Corn: 0
[5]; [20]
  Corn plant response rating: 0
[5]; [21]
  Corn plant response rating: 0
[5]; Preemergence, Rate 250 g/ha
  Corn plant response rating (0 to 10 scale): 0
[5]; [22]
  Corn plant response rating: 0
[5]; [23]
  Plant response rating, Corn: 0
[6]; [17]
  Crabgrass plant response rating: 0
[6]; [18]
  Crabgrass plant response rating: 0
[6]; [19]
  Plant response rating, Crabgrass: 3
[6]; [20]
  Crabgrass plant response rating: 0
[6]; [21]
  Crabgrass plant response rating: 0
[6]; Preemergence, Rate 250 g/ha
  Crabgrass plant response rating (0 to 10 scale): 0
[6]; [22]
  Crabgrass plant response rating: 2
[6]; [23]
  Plant response rating, Crabgrass: 0
[7]; [17]
  Giant foxtail plant response rating: 0
[7]; [18]
  Giant foxtail plant response rating: 0
[7]; [19]
  Plant response rating, Giant foxtail: 3
[7]; [20]
  Giant foxtail plant response rating: 0
[7]; [21]
  Giant foxtail plant response rating: 0
[7]; Preemergence, Rate 250 g/ha
  Giant foxtail plant response rating (0 to 10 scale): 0
[7]; [22]
  Giant foxtail plant response rating: 2
[7]; [23]
  Plant response rating, Giant foxtail: 0
[8]; [17]
  Morningglory plant response rating: 3
[8]; [18]
  Morningglory plant response rating: 5
[8]; [19]
  Plant response rating, Morningglory: 9
[8]; [20]
  Morningglory plant response rating: 0
[8]; [21]
  Morningglory plant response rating: 0
[8]; Preemergence, Rate 250 g/ha
  Morningglory plant response rating (0 to 10 scale): 0
[8]; [22]
  Morningglory plant response rating: 0
[8]; [23]
  Plant response rating, Morningglory: 7
[9]; [17]
  Redroot pigweed plant response rating: 0
[9]; [19]
  Plant response rating, Redroot pigweed: 6
[9]; [20]
  Redroot pigweed plant response rating: 0
[9]; [21]
  Redroot pigweed plant response rating: 0
[9]; Preemergence, Rate 250 g/ha
  Redroot pigweed plant response rating (0 to 10 scale): 0
[9]; [22]
  Redroot pigweed plant response rating: 9
[9]; [23]
  Plant response rating, Redroot pigweed: 6
[10]; [17]
  Rape plant response rating: 0
[10]; [18]
  Rape plant response rating: 0
[10]; [19]
  Plant response rating, Rape: 0
[10]; [20]
  Rape plant response rating: 0
[10]; [21]
  Rape plant response rating: 0
[10]; Preemergence, Rate 250 g/ha
  Rape plant response rating (0 to 10 scale): 0
[10]; [22]
  Rape plant response rating: 0
[10]; [23]
  Plant response rating, Rape: 0
[11]; [17]
  Soybean plant response rating: 2
[11]; [19]
  Plant response rating, Soybean: 3
[11]; [20]
  Soybean plant response rating: 0
[11]; [21]
  Soybean plant response rating: 0
[11]; Preemergence, Rate 250 g/ha
  Soybean plant response rating (0 to 10 scale): 0
[11]; [22]
  Soybean plant response rating: 0
[11]; [23]
  Plant response rating, Soybean: 3
[12]; [17]
  Sugarbeets plant response rating: 0
[12]; [19]
  Plant response rating, Sugarbeets: 0
[12]; [20]
  Sugarbeets plant response rating: 0
[12]; [21]
  Sugarbeets plant response rating: 0
[12]; Preemergence, Rate 250 g/ha
  Sugarbeets plant response rating (0 to 10 scale): 0
[12]; [22]
  Sugarbeets plant response rating: 0
[12]; [23]
  Plant response rating, Sugarbeets: 0
[13]; [17]
  Velvetleaf plant response rating: 3
[13]; [19]
  Plant response rating, Velvetleaf: 4
[13]; [20]
  Velvetleaf plant response rating: 0
[13]; [21]
  Velvetleaf plant response rating: 0
[13]; Preemergence, Rate 250 g/ha
  Velvetleaf plant response rating (0 to 10 scale): 0
[13]; [22]
  Velvetleaf plant response rating: 0
[13]; [23]
  Plant response rating, Velvetleaf: 4
[14]; [17]
  Wheat plant response rating: 0
[14]; [19]
  Plant response rating, Wheat: 0
[14]; [20]
  Wheat plant response rating: 0
[14]; [21]
  Wheat plant response rating: 0
[14]; Preemergence, Rate 250 g/ha
  Wheat plant response rating (0 to 10 scale): 0
[14]; [22]
  Wheat plant response rating: 0
[14]; [23]
  Plant response rating, Wheat: 0
[15]; [17]
  Wild oats plant response rating: 0
[15]; [19]
  Plant response rating, Wild oats: 0
[15]; [20]
  Wild oats plant response rating: 0
[15]; [21]
  Wild oats plant response rating: 0
[15]; Preemergence, Rate 250 g/ha
  Wild oats plant response rating (0 to 10 scale): 0
[15]; [22]
  Wild oats plant response rating: 0
[15]; [23]
  Plant response rating, Wild oats: 0
[16]; [18]
  Nutsedge plant response rating: 0
[16]; [19]
  Plant response rating, Nutsedge: 0
[16]; [20]
  Nutsedge plant response rating: 0
[16]; [21]
  Nutsedge plant response rating: 0
[16]; Preemergence, Rate 250 g/ha
  Nutsedge plant response rating (0 to 10 scale): 0
[16]; [22]
  Nutsedge plant response rating: 0
[16]; [23]
  Plant response rating, Nutsedge: 0
